Data taken from publication PMC11864979, “First-in-class ultralong-target-residence-time p38α inhibitors as a mitosis-targeted therapy for colorectal cancer” (Nature Cancer, 2025).
Where “and” joins values, the source holds several entries; their conditions need not be identical. Equal entries are not always repeated. Where two headings read alike, the source gives them in different places.

Tests used:
LS 174T = experiment: cell viability in human CRC cell line LS 174T; assay type: cell-based
Protocol: The cells were cultured at 37 °C and 7% CO2 with RPMI (KAP^2D cells) or DMEM (other cell lines), supplemented with 10% FBS and penicillin–streptomycin. […] No commonly misidentified cell lines were used. Mycoplasma contamination was excluded by a PCR-based analysis.

HT-29 = experiment: cell viability in human CRC cell line HT-29; assay type: cell-based; details: for HT-29 Cell viability (%) / viability at 0.0137 µM / viability at 0.0412 µM / viability at 0.1235 µM / viability at 0.3704 µM / viability at 1.1111 µM / viability at 3.3333 µM / viability at 10 µM: ED Fig. 9h, replicates; for viability at 0.0137 µM: HT-29, 0.0137 µM; for viability at 0.0137 µM / viability at 0.0412 µM / viability at 0.1235 µM / viability at 0.3704 µM / viability at 1.1111 µM / viability at 3.3333 µM / viability at 10 µM: read-out: HT-29 Cell viability (%); for viability at 0.0412 µM: HT-29, 0.0412 µM; for viability at 0.1235 µM: HT-29, 0.1235 µM; for viability at 0.3704 µM: HT-29, 0.3704 µM; for viability at 1.1111 µM: HT-29, 1.1111 µM; for viability at 3.3333 µM: HT-29, 3.3333 µM; for viability at 10 µM: HT-29, 10.0000 µM
Protocol: To generate KAP^2D cells, KAP organoids were isolated from Matrigel, fragmented by mechanical dissociation and plated without any extracellular matrix on common cell culture dishes. Phoenix-Eco packaging cells (CRL-3214), HCT-15 (CCL-225), HCT 116 (CCL-247), COLO 205 (CCL-222), LS 174T (CL-188), RKO (CRL-2577) and HT-29 (HTB-38) were obtained from the American Type Culture Collection. The cells were cultured at 37 °C and 7% CO2 with RPMI (KAP^2D cells) or DMEM (other cell lines), supplemented with 10% FBS and penicillin–streptomycin. KAP^2D cells were authenticated using PCR (Kras locus and Trp53 locus). Phoenix-Eco packaging cells and HCT-15, HCT 116, COLO 205, LS 174T, RKO and HT-29 cells were authenticated by the provider using short tandem repeat profiling. No commonly misidentified cell lines were used. Mycoplasma contamination was excluded by a PCR-based analysis.
For in vitro treatment studies, organoids were mechanically dissociated and digested using TrypLE supplemented with 100 µg ml^−1 DNaseI and 10.5 µM Y-27632 dihydrochloride (Invitrogen) at 37 °C. A total of 1,000–2,000 single cells were plated per well in white 96-well plates (Greiner) in culture medium containing 10% GFR Matrigel or Cultrex BME. The treatment with doxycycline (5 µg ml^−1), pharmacological inhibitors or corresponding volumes of DMSO was started 24 h after plating. Doxycycline was obtained from Sigma-Aldrich. […] Cell viability was measured by means of CellTiter-Glo 3D or CellTiter-Glo 2.0 reagent (Promega) according to the manufacturers’ instructions and the Infinite M Plex reader (Tecan, i-control version 3.9.1 software). Results were normalized to vehicle (DMSO) or to shNC. For cell-doubling assays, the cell number was quantified at the corresponding time points using Guava EasyCyte flow cytometer (Luminex, CytoSoft v5.2 software).

KAP^2D cells = experiment: quantification of viable KAP^2D cells over time (cell-doubling assay); assay type: cell-based, mouse; details: Fig. 4i
Protocol: The treatment with doxycycline (5 µg ml^−1), pharmacological inhibitors or corresponding volumes of DMSO was started 24 h after plating. […] Cell viability was measured by means of CellTiter-Glo 3D or CellTiter-Glo 2.0 reagent (Promega) according to the manufacturers’ instructions and the Infinite M Plex reader (Tecan, i-control version 3.9.1 software). Results were normalized to vehicle (DMSO) or to shNC. For cell-doubling assays, the cell number was quantified at the corresponding time points using Guava EasyCyte flow cytometer (Luminex, CytoSoft v5.2 software).

## CNC(=O)c1ccc2c(c1)C(=O)c1ccc(Nc3ccc(F)c(NC(=O)C4CC4)c3)cc1CC2 [Compound 2015]
LS 174T; 3.3333 µM, 4 d
  LS 174T Cell viability (%): 32.71% and 33.28% and 34.27% and 33.01% and 33.12%
LS 174T; 10.0000 µM, 4 d
  LS 174T Cell viability (%): 28.71% and 24.62% and 25.79% and 25.85%
LS 174T; Homo sapiens, LS174T, 96 h, 0.0137 µM, 4 d, read-out: LS 174T Cell viability (%)
  viability at 0.0137 µM: 92.3%
LS 174T; Homo sapiens, LS174T, 96 h, 0.0412 µM, 4 d, read-out: LS 174T Cell viability (%)
  viability at 0.0412 µM: 70.7%
LS 174T; Homo sapiens, LS174T, 96 h, 0.3704 µM, 4 d, read-out: LS 174T Cell viability (%)
  viability at 0.3704 µM: 25%
LS 174T; Homo sapiens, LS174T, 96 h, 1.1111 µM, 4 d, read-out: LS 174T Cell viability (%)
  viability at 1.1111 µM: 31.5%
LS 174T; Homo sapiens, LS174T, 96 h, 3.3333 µM, 4 d, read-out: LS 174T Cell viability (%)
  viability at 3.3333 µM: 33.1%
LS 174T; Homo sapiens, LS174T, 96 h, 10.0000 µM, 4 d, read-out: LS 174T Cell viability (%)
  viability at 10 µM: 25.1%
LS 174T; Homo sapiens, LS174T, 96 h, LS 174T, 4 d of treatment
  IC50: 132 nM
HT-29; 0.0137 µM, Repetition
  HT-29 Cell viability (%): 96.89% and 103.43%
HT-29; 0.0137 µM, first experiment
  HT-29 Cell viability (%): 95.39% and 93.39%
HT-29; 0.0412 µM, Repetition
  HT-29 Cell viability (%): 87.26% and 92.22%
HT-29; 0.0412 µM, first experiment
  HT-29 Cell viability (%): 90.94% and 92.11%
HT-29; 0.1235 µM, Repetition
  HT-29 Cell viability (%): 78.51% and 65.92%
HT-29; 0.1235 µM, first experiment
  HT-29 Cell viability (%): 82.62% and 81.99%
HT-29; 0.3704 µM, Repetition
  HT-29 Cell viability (%): 32.88% and 34.27%
HT-29; 0.3704 µM, first experiment
  HT-29 Cell viability (%): 11.40% and 11.69%
HT-29; 1.1111 µM, Repetition
  HT-29 Cell viability (%): 7.40% and 7.23%
HT-29; 1.1111 µM, first experiment
  HT-29 Cell viability (%): 7.18% and 7.44%
HT-29; 3.3333 µM, Repetition
  HT-29 Cell viability (%): 7.01% and 6.31%
HT-29; 3.3333 µM, first experiment
  HT-29 Cell viability (%): 10.00% and 9.86%
HT-29; 10.0000 µM, Repetition
  HT-29 Cell viability (%): 6.48% and 6.38%
HT-29; 10.0000 µM, first experiment
  HT-29 Cell viability (%): 9.39% and 10.22%
HT-29; Homo sapiens, 96 h, HT-29, 4 d of treatment
  IC50: 178 nM
HT-29; Homo sapiens, Repetition
  viability at 0.0137 µM: 99.5%
  viability at 0.0412 µM: 82.5%
  viability at 0.1235 µM: 73%
  viability at 0.3704 µM: 33.4%
  viability at 1.1111 µM: 7.21%
  viability at 3.3333 µM: 6.86%
  viability at 10 µM: 6.64%
HT-29; Homo sapiens, first experiment
  viability at 0.0137 µM: 93.3%
  viability at 0.0412 µM: 89.4%
  viability at 0.1235 µM: 79.7%
  viability at 0.3704 µM: 12.1%
  viability at 1.1111 µM: 7.57%
  viability at 3.3333 µM: 10.2%
  viability at 10 µM: 9.63%
KAP^2D cells; 0 h of treatment
  Number of cells: 41307.05 and 44263.95 and 43595.63 and 48502.24 and 40389.64
KAP^2D cells; 12 h of treatment
  Number of cells: 56623.49 and 67064.09 and 57491.63 and 61648.82 and 68603.21 and 63323.28
KAP^2D cells; 24 h of treatment
  Number of cells: 66705.14 and 74668.97 and 68938.05 and 94046.77 and 77517.08 and 74107.42
KAP^2D cells; 36 h of treatment
  Number of cells: 95730.63 and 106064.51 and 93579.45 and 106339.60 and 110499.20 and 87144.95
KAP^2D cells; 48 h of treatment
  Number of cells: 89649.37 and 121264.28 and 95171.59 and 108694.60 and 121883.40 and 116976.50
KAP^2D cells; 60 h of treatment
  Number of cells: 136203.08 and 127468.86 and 129997.76 and 163066.30 and 164108.30 and 135189.10
